Measured values as given in publication PMC5218480 (PLoS ONE, 2017).

System: MV-4-11 cells
Assay: Gene expression microarray analysis (Affymetrix PrimeView) and GSEA
Type: cell-based, human
Set-up: RFU PODN (11730768_x_at) / Fold change /veh PODN (11730768_x_at) / RFU LINC00158 (11744669_a_at) / Fold change /veh LINC00158 (11744669_a_at) / RFU DUSP10 (11751237_a_at) / Fold change /veh DUSP10 (11751237_a_at) / RFU ID3 (11757404_x_at) / Fold change /veh ID3 (11757404_x_at) / RFU PLEKHG5 (11737974_s_at) / Fold change /veh PLEKHG5 (11737974_s_at) / RFU LRRC4B (11730491_at) / Fold change /veh LRRC4B (11730491_at) / RFU GIMAP4 (11747438_a_at) / Fold change /veh GIMAP4 (11747438_a_at) / RFU KRT8 (11758183_x_at) / Fold change /veh KRT8 (11758183_x_at) / RFU CNN1 (11734310_a_at) / Fold change /veh CNN1 (11734310_a_at) / RFU VPS37D (11726825_at) / Fold change /veh VPS37D (11726825_at) / RFU C10orf10 (11716522_x_at) / Fold change /veh C10orf10 (11716522_x_at) / RFU KIR2DL2 /// KIR2DL4 /// KIR2DL5A /// KIR2DL5B /// KIR2DS1 /// KIR2DS2 /// KIR2DS3 /// KIR2DS4 /// KIR3DL3 /// KIR3DL3 /// KIR3DS1 (11738374_at) / Fold change /veh KIR2DL2 /// KIR2DL4 /// KIR2DL5A /// KIR2DL5B /// KIR2DS1 /// KIR2DS2 /// KIR2DS3 /// KIR2DS4 /// KIR3DL3 /// KIR3DL3 /// KIR3DS1 (11738374_at) / RFU C1QL1 (11718748_at) / Fold change /veh C1QL1 (11718748_at) / RFU TMPRSS4 (11747572_a_at) / Fold change /veh TMPRSS4 (11747572_a_at) / RFU HAMP (11756126_x_at) / Fold change /veh HAMP (11756126_x_at) / RFU RNFT2 (11725882_a_at) / Fold change /veh RNFT2 (11725882_a_at) / RFU NR4A2 (11747474_a_at) / Fold change /veh NR4A2 (11747474_a_at) / RFU ABCC12 (11746883_a_at) / Fold change /veh ABCC12 (11746883_a_at) / RFU TMEM136 (11760407_x_at) / Fold change /veh TMEM136 (11760407_x_at) / RFU CLDN22 /// WWC2 (11732394_at) / Fold change /veh CLDN22 /// WWC2 (11732394_at) / RFU HLA-DPB1 (11760878_x_at) / Fold change /veh HLA-DPB1 (11760878_x_at) / RFU SPINT1 (11716480_a_at) / Fold change /veh SPINT1 (11716480_a_at) / RFU GAP43 (11754022_s_at) / Fold change /veh GAP43 (11754022_s_at) / RFU A4GNT (11735810_at) / Fold change /veh A4GNT (11735810_at) / RFU PRB3 (11715151_x_at) / Fold change /veh PRB3 (11715151_x_at) / RFU TUBB4B (11761932_at) / Fold change /veh TUBB4B (11761932_at) / RFU CAPN14 (11732068_a_at) / Fold change /veh CAPN14 (11732068_a_at) / RFU TMCC2 (11721928_a_at) / Fold change /veh TMCC2 (11721928_a_at) / RFU IRGQ (11745062_a_at) / Fold change /veh IRGQ (11745062_a_at) / RFU FAM174B (11720279_a_at) / Fold change /veh FAM174B (11720279_a_at) / RFU TMPRSS4 (11748680_a_at) / Fold change /veh TMPRSS4 (11748680_a_at) / RFU FAM212B (11763350_a_at) / Fold change /veh FAM212B (11763350_a_at) / RFU PLEKHG5 (11743358_a_at) / Fold change /veh PLEKHG5 (11743358_a_at) / RFU ZSCAN30 (11745921_a_at) / Fold change /veh ZSCAN30 (11745921_a_at) / RFU CMKLR1 (11741424_a_at) / Fold change /veh CMKLR1 (11741424_a_at) / RFU LOC101060620 /// MAPK8IP1 (11723275_at) / Fold change /veh LOC101060620 /// MAPK8IP1 (11723275_at) / RFU SPTSSB (11747773_x_at) / Fold change /veh SPTSSB (11747773_x_at) / RFU PRSS12 (11739890_at) / Fold change /veh PRSS12 (11739890_at) / RFU BIN1 (11741810_x_at) / Fold change /veh BIN1 (11741810_x_at) / RFU WNT11 (11732464_a_at) / Fold change /veh WNT11 (11732464_a_at) / RFU C10orf10 (11716521_a_at) / Fold change /veh C10orf10 (11716521_a_at) / RFU C5orf56 (11738089_at) / Fold change /veh C5orf56 (11738089_at) / RFU CYB561 (11721691_x_at) / Fold change /veh CYB561 (11721691_x_at) / RFU ANKRD19P (11752326_a_at) / Fold change /veh ANKRD19P (11752326_a_at) / RFU OR2T12 /// OR2T33 /// OR2T8 (11738714_s_at) / Fold change /veh OR2T12 /// OR2T33 /// OR2T8 (11738714_s_at) / RFU VCAN (11748164_a_at) / Fold change /veh VCAN (11748164_a_at) / RFU JSRP1 (11732532_at) / Fold change /veh JSRP1 (11732532_at) / RFU KRTAP10-11 (11738290_x_at) / Fold change /veh KRTAP10-11 (11738290_x_at) / RFU MYO3A (11730013_a_at) / Fold change /veh MYO3A (11730013_a_at) / RFU EBF3 (11725865_a_at) / Fold change /veh EBF3 (11725865_a_at) / RFU CAMK2N1 (11719241_x_at) / Fold change /veh CAMK2N1 (11719241_x_at) / RFU C5orf56 (11738088_a_at) / Fold change /veh C5orf56 (11738088_a_at) / RFU OLFML3 (11715873_a_at) / Fold change /veh OLFML3 (11715873_a_at) / RFU LOC100653217 /// NTM (11731650_a_at) / Fold change /veh LOC100653217 /// NTM (11731650_a_at) / RFU MAPK11 (11762145_a_at) / Fold change /veh MAPK11 (11762145_a_at) / RFU FIZ1 (11724087_x_at) / Fold change /veh FIZ1 (11724087_x_at) / RFU OASL (11726364_x_at) / Fold change /veh OASL (11726364_x_at) / RFU SOX15 (11748057_x_at) / Fold change /veh SOX15 (11748057_x_at) / RFU CD79A (11719716_a_at) / Fold change /veh CD79A (11719716_a_at) / RFU HIST1H1D (11736915_at) / Fold change /veh HIST1H1D (11736915_at) / RFU CASKIN2 (11723855_a_at) / Fold change /veh CASKIN2 (11723855_a_at) / RFU LOC730098 (11760151_x_at) / Fold change /veh LOC730098 (11760151_x_at) / RFU OR4N2 (11742367_at) / Fold change /veh OR4N2 (11742367_at) / RFU PRRT2 (11749266_a_at) / Fold change /veh PRRT2 (11749266_a_at) / RFU SNX32 (11753110_a_at) / Fold change /veh SNX32 (11753110_a_at) / RFU CDHR5 (11726645_a_at) / Fold change /veh CDHR5 (11726645_a_at) / RFU RCAN1 (11760418_a_at) / Fold change /veh RCAN1 (11760418_a_at) / RFU FAM167A (11723789_a_at) / Fold change /veh FAM167A (11723789_a_at) / RFU FAM26E (11764081_at) / Fold change /veh FAM26E (11764081_at) / RFU ISYNA1 (11749810_s_at) / Fold change /veh ISYNA1 (11749810_s_at) / RFU ACY1 (11761880_at) / Fold change /veh ACY1 (11761880_at) / RFU 11764098_at / Fold change /veh 11764098_at / RFU SAMD14 (11745864_x_at) / Fold change /veh SAMD14 (11745864_x_at) / RFU NPB (11741838_a_at) / Fold change /veh NPB (11741838_a_at) / RFU TMPRSS6 (11731388_a_at) / Fold change /veh TMPRSS6 (11731388_a_at) / RFU KRTAP10-2 (11738614_at) / Fold change /veh KRTAP10-2 (11738614_at) / RFU ARHGAP8 /// PRR5-ARHGAP8 (11727945_x_at) / Fold change /veh ARHGAP8 /// PRR5-ARHGAP8 (11727945_x_at) / RFU KRTAP5-7 /// NADSYN1 (11734609_at) / Fold change /veh KRTAP5-7 /// NADSYN1 (11734609_at) / RFU RASL12 (11751679_a_at) / Fold change /veh RASL12 (11751679_a_at) / RFU CDKN2B (11736163_a_at) / Fold change /veh CDKN2B (11736163_a_at) / RFU PRF1 (11729649_at) / Fold change /veh PRF1 (11729649_at) / RFU, ZNF638 /// ZNF638-IT1 / Fold change vs veh, ZNF638 /// ZNF638-IT1 / RFU, PANK3 / Fold change vs veh, PANK3 / RFU, SH3YL1 / Fold change vs veh, SH3YL1 / RFU, ZEB2 / Fold change vs veh, ZEB2 / RFU, NRIP1 / Fold change vs veh, NRIP1 / RFU, PTTG1IP / Fold change vs veh, PTTG1IP / RFU, CAPN2 / Fold change vs veh, CAPN2 / RFU, MED14 / Fold change vs veh, MED14 / RFU, SNORA58 / Fold change vs veh, SNORA58 / RFU, C1orf63 / Fold change vs veh, C1orf63 / RFU, LRRFIP1 / Fold change vs veh, LRRFIP1 / RFU, NDUFAF7 / Fold change vs veh, NDUFAF7 / RFU, SLC12A2 / Fold change vs veh, SLC12A2 / RFU, IBTK / Fold change vs veh, IBTK / RFU, ESF1 / Fold change vs veh, ESF1 / Fold change vs veh, TMEM50B / RFU, TAOK1 / Fold change vs veh, TAOK1 / RFU, ACBD3 / Fold change vs veh, ACBD3 / RFU, TMA16 / Fold change vs veh, TMA16 / RFU, RWDD3 / Fold change vs veh, RWDD3 / RFU, BCAT1 / Fold change vs veh, BCAT1 / RFU, EDEM3 / Fold change vs veh, EDEM3 / RFU, TMEM33 / Fold change vs veh, TMEM33 / RFU, WDR75 / Fold change vs veh, WDR75 / RFU, AHCTF1 / Fold change vs veh, AHCTF1 / RFU, TFRC / Fold change vs veh, TFRC / RFU, ZDHHC17 / Fold change vs veh, ZDHHC17 / RFU, NOM1 / Fold change vs veh, NOM1 / RFU, ARL8B / Fold change vs veh, ARL8B / RFU, ZBTB11 / Fold change vs veh, ZBTB11 / RFU, TAMM41 / Fold change vs veh, TAMM41 / RFU, KIAA1704 /// LOC100996395 / Fold change vs veh, KIAA1704 /// LOC100996395 / RFU, ING1 / Fold change vs veh, ING1 / RFU, TRMT61B / Fold change vs veh, TRMT61B / RFU, FUBP3 / Fold change vs veh, FUBP3 / RFU, TP53 / Fold change vs veh, TP53 / RFU, TNKS2 / Fold change vs veh, TNKS2 / RFU, ZFP14 / Fold change vs veh, ZFP14 / RFU, ACTR2 / Fold change vs veh, ACTR2 / RFU, PPP3R1 / Fold change vs veh, PPP3R1 / RFU, PIK3R1 / Fold change vs veh, PIK3R1 / RFU, HNRNPA1 / Fold change vs veh, HNRNPA1 / RFU, RNF170 / Fold change vs veh, RNF170 / RFU, ZNF28 / Fold change vs veh, ZNF28 / RFU, RNGTT / Fold change vs veh, RNGTT / RFU, OGT / Fold change vs veh, OGT / RFU, BRD1 / Fold change vs veh, BRD1 / RFU, MARS / Fold change vs veh, MARS / RFU, ZNF655 / Fold change vs veh, ZNF655 / RFU, FAHD1 / Fold change vs veh, FAHD1 / RFU, BDP1 / Fold change vs veh, BDP1 / RFU, LRRCC1 / Fold change vs veh, LRRCC1 / RFU, ARID1A / Fold change vs veh, ARID1A / RFU, ZNF146 / Fold change vs veh, ZNF146 / RFU, ZNF330 / Fold change vs veh, ZNF330 / RFU, GPN3 / Fold change vs veh, GPN3 / RFU, C9orf123 / Fold change vs veh, C9orf123 / RFU, N4BP2L2 / Fold change vs veh, N4BP2L2 / RFU, ARFIP1 / Fold change vs veh, ARFIP1 / RFU, FAM179B / Fold change vs veh, FAM179B / RFU, BCL10 / Fold change vs veh, BCL10 / RFU, UHRF1BP1L / Fold change vs veh, UHRF1BP1L / RFU, BET1 / Fold change vs veh, BET1 / RFU, CNOT2 / Fold change vs veh, CNOT2 / RFU, ZNF268 / Fold change vs veh, ZNF268 / Fold change vs veh, ZNF507 / RFU, DGCR2 / Fold change vs veh, DGCR2 / RFU, WDSUB1 / Fold change vs veh, WDSUB1 / Fold change vs veh, HSP90B1 /// MIR3652 / RFU, ADSS / Fold change vs veh, ADSS / RFU, GK / Fold change vs veh, GK / RFU, ZNF148 / Fold change vs veh, ZNF148 / RFU, TAF9 / Fold change vs veh, TAF9 / RFU, SLC1A5 / Fold change vs veh, SLC1A5 / RFU, SLMO2 / Fold change vs veh, SLMO2 / RFU, ABCC4 / Fold change vs veh, ABCC4 / RFU, LOC101060439 /// RAP1B / Fold change vs veh, LOC101060439 /// RAP1B / RFU, RFX7 / Fold change vs veh, RFX7 / RFU, GTPBP10 / Fold change vs veh, GTPBP10 / RFU, CNEP1R1 / Fold change vs veh, CNEP1R1 / RFU, BIVM-ERCC5 /// ERCC5 / Fold change vs veh, BIVM-ERCC5 /// ERCC5 / RFU, ILF3 / Fold change vs veh, ILF3 / RFU 11762660_at / Fold change /veh 11762660_at / RFU VCAN (11757783_s_at) / Fold change /veh VCAN (11757783_s_at) / RFU DDX43 (11728927_at) / Fold change /veh DDX43 (11728927_at) / RFU KRT8 (11758188_x_at) / Fold change /veh KRT8 (11758188_x_at) / RFU NKD1 (11759106_at) / Fold change /veh NKD1 (11759106_at) / RFU SRD5A1 (11742802_a_at) / Fold change /veh SRD5A1 (11742802_a_at) / RFU TPSAB1 /// TPSB2 (11721975_s_at) / Fold change /veh TPSAB1 /// TPSB2 (11721975_s_at) / RFU GSTM3 (11746129_a_at) / Fold change /veh GSTM3 (11746129_a_at) / RFU IL23R (11737362_x_at) / Fold change /veh IL23R (11737362_x_at) / RFU TMEM51 (11727254_a_at) / Fold change /veh TMEM51 (11727254_a_at) / RFU PIWIL2 (11732686_x_at) / Fold change /veh PIWIL2 (11732686_x_at) / RFU ORM1 (11744905_x_at) / Fold change /veh ORM1 (11744905_x_at) / RFU CCDC152 (11743942_at) / Fold change /veh CCDC152 (11743942_at) / RFU ECM1 (11717891_a_at) / Fold change /veh ECM1 (11717891_a_at) / RFU IL23R (11748794_a_at) / Fold change /veh IL23R (11748794_a_at) / RFU TNFAIP8L3 (11732012_x_at) / Fold change /veh TNFAIP8L3 (11732012_x_at) / RFU MBOAT4 (11741988_at) / Fold change /veh MBOAT4 (11741988_at) / RFU 11764193_at / Fold change /veh 11764193_at / RFU TMEM53 (11763286_at) / Fold change /veh TMEM53 (11763286_at) / RFU MAGEB2 (11727129_at) / Fold change /veh MAGEB2 (11727129_at) / RFU TMEM200A (11744735_a_at) / Fold change /veh TMEM200A (11744735_a_at) / RFU CCDC152 (11751479_a_at) / Fold change /veh CCDC152 (11751479_a_at) / RFU FAM211A (11726209_a_at) / Fold change /veh FAM211A (11726209_a_at) / RFU RGS16 (11746705_a_at) / Fold change /veh RGS16 (11746705_a_at) / RFU VCAN (11755009_s_at) / Fold change /veh VCAN (11755009_s_at) / RFU RHOB (11743442_s_at) / Fold change /veh RHOB (11743442_s_at) / RFU RGS16 (11720943_a_at) / Fold change /veh RGS16 (11720943_a_at) / RFU RGS16 (11720944_at) / Fold change /veh RGS16 (11720944_at) / RFU, VPS4B / Fold change vs veh, VPS4B / RFU, CREB1 / Fold change vs veh, CREB1 / RFU, DNAJC13 / Fold change vs veh, DNAJC13 / RFU, GNAQ / Fold change vs veh, GNAQ / RFU, CDK5R1 / Fold change vs veh, CDK5R1 / RFU, ZRANB3 / Fold change vs veh, ZRANB3 / RFU, CUL4A / Fold change vs veh, CUL4A / RFU, CCNY / Fold change vs veh, CCNY / RFU, UFL1 / Fold change vs veh, UFL1 / RFU, COG3 / Fold change vs veh, COG3 / RFU, DIAPH2 / Fold change vs veh, DIAPH2 / RFU, SKA2 / Fold change vs veh, SKA2 / RFU, AFF3 / Fold change vs veh, AFF3 / RFU, LMF1 / Fold change vs veh, LMF1 / RFU, IPO11 / Fold change vs veh, IPO11 / RFU, DFFB / Fold change vs veh, DFFB / RFU, FOXP1 / Fold change vs veh, FOXP1 / RFU, CARD8 / Fold change vs veh, CARD8 / RFU, STRN3 / Fold change vs veh, STRN3 / RFU, ADK / Fold change vs veh, ADK / RFU, RASSF2 / Fold change vs veh, RASSF2 / RFU, WIPF1 / Fold change vs veh, WIPF1 / RFU, LARP1B / Fold change vs veh, LARP1B / RFU, RASA1 / Fold change vs veh, RASA1 / RFU, RB1 / Fold change vs veh, RB1 / RFU, PPFIA1 / Fold change vs veh, PPFIA1 / RFU, MAT2A / Fold change vs veh, MAT2A / RFU, CCT5 / Fold change vs veh, CCT5 / RFU, WDR92 / Fold change vs veh, WDR92 / RFU, CUX1 / Fold change vs veh, CUX1 / RFU, TTC7A / Fold change vs veh, TTC7A / RFU, TMEM135 / Fold change vs veh, TMEM135 / RFU, DEPTOR / Fold change vs veh, DEPTOR / RFU, CPM / Fold change vs veh, CPM / RFU, DNAJB6 / Fold change vs veh, DNAJB6 / RFU, CACNA2D3 / Fold change vs veh, CACNA2D3 / RFU, DTX4 / Fold change vs veh, DTX4 / RFU, TFCP2 / Fold change vs veh, TFCP2 / RFU, GMCL1 /// GMCL1P1 / Fold change vs veh, GMCL1 /// GMCL1P1 / RFU, AEBP2 / Fold change vs veh, AEBP2 / RFU, SNHG1 /// SNORD22 /// SNORD25 /// SNORD26 /// SNORD27 /// SNORD28 /// SNORD29 /// SNORD31 / Fold change vs veh, SNHG1 /// SNORD22 /// SNORD25 /// SNORD26 /// SNORD27 /// SNORD28 /// SNORD29 /// SNORD31 / Fold change (Aza/veh), C12orf56 (ProbeSet 11735607_a_at) / Fold change (ACY-1035/veh), C12orf56 (ProbeSet 11735607_a_at) / Fold change (Aza/veh), FGFR1OP (ProbeSet 11751329_s_at) / Fold change (ACY-1035/veh), FGFR1OP (ProbeSet 11751329_s_at) / Fold change (Aza/veh), VPS36 (ProbeSet 11739960_a_at) / Fold change (ACY-1035/veh), VPS36 (ProbeSet 11739960_a_at) / RFU SYPL1 (11715823_x_at) / Fold change /veh SYPL1 (11715823_x_at) / RFU IGFBP7 (11715501_s_at) / Fold change /veh IGFBP7 (11715501_s_at) / RFU REEP3 (11722064_at) / Fold change /veh REEP3 (11722064_at) / RFU IGLL1 (11728026_x_at) / Fold change /veh IGLL1 (11728026_x_at): dose or concentration left out as unconfirmed
Details: MV-4-11 cells, 48 hours

With `Nc1ccc(-c2cccs2)cc1NC(=O)c1ccc2c(c1)cc(C1CC1)n2CCN1CCOCC1` [ACY-1035] the “RFU SYPL1 (11715823_x_at)” value was 565.47 RFU.
